Test results as given in patent US20190091290A1, “MACROPHAGE STIMULATION IN CD47 BLOCKADE THERAPY” (TRILLIUM THERAPEUTICS INC., priority 2016, published 2019).
Entries after “also recorded” stand apart in the source; their conditions may differ.

Legend:
CD64 = test: FcγR (CD16, CD32, CD64) expression on re-polarized M0, M2a and M2b macrophages by flow cytometry; type: cell-based, human; settings: overnight stimulation with the agent, FIG. 4
From the text: Heparinized whole blood was obtained from normal healthy human donors (Biological Specialty Corporation) and informed consent was obtained from all donors. Peripheral blood mononuclear cells (PBMCs) were isolated over Ficoll-Paque Plus density gradient (GE Healthcare) and CD14+ monocytes were isolated from PBMCs by positive selection using CD14 antibody-coated MicroBead separation (Miltenyi Biotec). Monocytes were differentiated into macrophages by culturing for at least 10 days in X-Vivo-15 media (Lonza) supplemented with 20 ng/mL M-CSF (PeproTech). Macrophages were washed and were polarized into M0, M2a, and M2b by culturing one day with 20 ng/mL M-CSF, 20 ng/mL IL-4 (PeproTech) or 50 ug/mL heat aggregated human gamma globulin (HAGG) and 20 ng/mL IL-1β (PeproTech), respectively. One day following polarization, polarization media was washed off, and cells were treated with 20 ng/mL IFN-γ (Peprotech), 1000 U/mL IFNa2a (PBL Assay Science), 20 ng/mL IL-10 (PeproTech), 10 ug/mL Poly (I:C) (InvivoGen), 1 ug/mL LPS (MDBiosciences), 1 ug/mL R848 (InvivoGen), or 10 ug/mL ODN2395 CpG (InvivoGen) overnight. On the next day, macrophages were harvested using enzyme-free cell dissociation buffer (ThermoFisher) for analysis of CD16, CD32 and CD64 expression. Macrophages were blocked with human Fc receptor binding inhibitor (ebioscience) and were stained with Near-IR LIVE/DEAD fixable dead cell stain (Invitrogen), FITC-conjugated anti-CD16 (Clone CB16), FITC-conjugated anti-CD32 (Clone FL18.26) and V450-conjugated anti-CD64 (Clone 10.1) in three independent cocktails. Cells were washed and resuspended in stabilizing fixative (BD Biosciences), and data was acquired on a FACSVerse flow cytometry machine, and data was analyzed using FlowJo software (Treestar Inc.). Macrophages were identified as live, single cells. Doublets were excluded by SSC-W and SSC-H discrimination.

[1] = tested on: M0, M2a and M2b macrophages; test: Phagocytic response to SIRPaFc after re-polarization of M0, M2a and M2b macrophages; type: cell-based, human; settings: overnight treatment with the agent; FIGS. 3A-3C
From the text: Heparinized whole blood was obtained from normal healthy human donors (Biological Specialty Corporation) and informed consent was obtained from all donors. Peripheral blood mononuclear cells (PBMCs) were isolated over Ficoll-Paque Plus density gradient (GE Healthcare) and CD14+ monocytes were isolated from PBMCs by positive selection using CD14 antibody-coated MicroBead separation (Miltenyi Biotec). Monocytes were differentiated into macrophages by culturing for at least 10 days in X-Vivo-15 media (Lonza) supplemented with 20 ng/mL M-CSF (PeproTech). Macrophages were washed and were polarized into M0, M2a, and M2b by culturing one day with 20 ng/mL M-CSF, 20 ng/mL IL-4 (PeproTech) or 50 ug/mL heat aggregated human gamma globulin (HAGG) and 20 ng/mL IL-1β (PeproTech), respectively. One day following polarization, polarization media was washed off, and cells were treated with 20 ng/mL IFN-γ (PeproTech), 1000 U/mL IFNα2a (PBL Assay Science), 20 ng/mL IL-10 (PeproTech), 10 ug/mL Poly (I:C) (InvivoGen), 1 ug/mL LPS (MDBiosciences), 1 ug/mL R848 (InvivoGen), or 10 ug/mL ODN2395 CpG (InvivoGen) overnight. On the next day, macrophages were harvested using enzyme-free cell dissociation buffer (ThermoFisher) for flow-based phagocytosis assay. Human B cell lymphoma cell line, Toledo, was labeled with Violet Proliferation Dye 450 (BD Biosciences) and added to repolarized macrophages in a round-bottom non-tissue culture treated 96-well plate at a 1:5 effector:target ratio. […] Cells were acquired on a FACSVerse flow cytometer, and data was analyzed using FlowJo software (Treestar Inc.). Macrophages were identified as live, single, CD14+CD11b+ cells. Doublets were excluded by SSC-W and SSC-H discrimination. Phagocytosis was assessed as the % of macrophages that were VPD450+. Statistical significance was calculated by unpaired t-test vs isotype control using GraphPad Prism software.

[2] = tested on: cancer cells that present with a CD47+ phenotype; settings: described in WO2014/094122; cited from earlier work
red blood cells = test: Binding to red blood cells
[3] = tested on: Human B cell lymphoma cell line, Toledo; test: Flow-based phagocytosis assay: polarized human monocyte-derived macrophages co-cultured with Toledo tumor cells; type: cell-based; settings: 1 uM SIRPaFc, FIG. 1
From the text: Heparinized whole blood was obtained from normal healthy human donors (Biological Specialty Corporation) and informed consent was obtained from all donors. Peripheral blood mononuclear cells (PBMCs) were isolated over Ficoll-Paque Plus density gradient (GE Healthcare) and CD14+ monocytes were isolated from PBMCs by positive selection using CD14 antibody-coated MicroBead separation (Miltenyi Biotec). Monocytes were differentiated into macrophages by culturing for at least 10 days in X-Vivo-15 media (Lonza) supplemented with 20 ng/mL M-CSF (PeproTech). One day prior to the phagocytosis assay the monocyte-derived macrophages were either left untreated in M-CSF media (M0) or treated overnight with 20 ng/mL M-CSF and 300 ng/mL interferon-gamma (IFN-γ) (PeproTech) as M1, 50 ng/mL IFN-γ and 50 ng/mL LPS (MD Biosciences) as M1+LPS, 20 ng/mL IL-4 (PeproTech) as M2a, 20 ng/mL IL-1β (PeproTech) and 50 ug/mL heat aggregated human IgG (HAGG) as M2b or 20 ng/mL IL-10 (PeproTech) and 20 ng/mL TGF (PeproTech) as M2c. […] Cells were acquired on a FACSVerse flow cytometer, and data was analyzed using FlowJo software (Treestar Inc.). […] Doublets were excluded by SSC-W and SSC-H discrimination. % Phagocytosis was assessed as the % of macrophages that were VPD450+. Statistical significance was calculated by unpaired t-test vs isotype control using GraphPad Prism software, where p***<0.001.

CD47 = CD47 (Homo sapiens, UniProt Q08722); test: CD47 agonism upon binding
CD47, sequence (Q08722 19-323): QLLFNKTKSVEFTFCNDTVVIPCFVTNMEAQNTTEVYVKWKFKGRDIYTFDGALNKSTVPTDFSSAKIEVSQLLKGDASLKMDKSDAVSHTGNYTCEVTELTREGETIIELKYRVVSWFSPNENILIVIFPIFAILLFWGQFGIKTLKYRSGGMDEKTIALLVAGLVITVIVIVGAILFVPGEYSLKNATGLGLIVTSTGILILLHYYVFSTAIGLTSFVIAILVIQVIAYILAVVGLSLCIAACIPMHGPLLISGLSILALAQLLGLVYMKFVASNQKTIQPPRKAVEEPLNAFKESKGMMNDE

IFNα [reference compound]
expression of CD64 on M0, M2a and M2b macrophages after repolarization (CD64): increased | expression of CD64 on M0, M2a and M2b macrophages after repolarization (CD64; listed as IFN-alpha): most striking | responsiveness to SIRPaFc (phagocytosis of Toledo cells) of M0, M2a and M2b macrophages after repolarization [1]: increased

SIRPaFc: human SIRPaFc comprising the V region of human SIRPa variant 2 fused to a wild type human IgG1 Fc region, SEQ ID NO: 3
effects on the viability of CD47+ cancer cells [2]: dramatic effects | binding to red blood cells (red blood cells): negligible binding | phagocytosis of DLBCL Toledo cell line by all 6 macrophage subsets ([3]; M0, M1, M1+LPS, M2a, M2b, M2c macrophages from human PBMC, vs control Fc): increased phagocytosis | SIRPαFc induced phagocytosis by M1 (+/−LPS) and M2c MDMs compared to M0, M2a and M2b subsets ([3]; Toledo cells): superior | CD47 agonism when binding thereto (CD47): negligible CD47 agonism

polyinosine-polycytidylic acid [Poly (I:C), reference compound]
expression of CD64 on M0, M2a and M2b macrophages after repolarization (CD64): increased | responsiveness to SIRPaFc (phagocytosis of Toledo cells) of M0, M2a and M2b macrophages after repolarization [1]: increased

B1: IFNγ: interferon-gamma (PeproTech), macrophage stimulating cytokine (protein, UniProt P01579 24-161, looked up)
Interferon gamma: QDPYVKEAENLKKYFNAGHSDVADNGTLFLGILKNWKEESDRKIMQSQIVSFYFKLFKNFKDDQSIQKSVETIKEDMNVKFFNSNKKKRDDFEKLTNYSVTDLNVQRKAIHELIQVMAELSPAAKTGKRKRSQMLFRG
expression of CD64 on M0, M2a and M2b macrophages after repolarization (CD64): increased | responsiveness to SIRPaFc (phagocytosis of Toledo cells) of M0, M2a and M2b macrophages after repolarization [1]: increased

B2: IL-10: interleukin-10 (PeproTech), macrophage stimulating cytokine (protein, UniProt P22301 19-178, looked up)
Interleukin-10: SPGQGTQSENSCTHFPGNLPNMLRDLRDAFSRVKTFFQMKDQLDNLLLKESLLEDFKGYLGCQALSEMIQFYLEEVMPQAENQDPDIKAHVNSLGENLKTLRLRLRRCHRFLPCENKSKAVEQVKNAFNKLQEKGIYKAMSEFDIFINYIEAYMTMKIRN
expression of CD64 on M0, M2a and M2b macrophages after repolarization (CD64): increased; also recorded: most striking | responsiveness to SIRPaFc (phagocytosis of Toledo cells) of M0, M2a and M2b macrophages after repolarization [1]: increased
